The values that follow come from ChEMBL document CHEMBL4118204, “Antidiabetic potential of phytochemicals isolated from the stem bark of Myristica fatua Houtt. var. magnifica (Bedd.) Sinclair” (Bioorg Med Chem, 2018).

The target of series [1] is T1, Pancreatic alpha-amylase (Sus scrofa, UniProt P00690).
T1 sequence (P00690 whole entry): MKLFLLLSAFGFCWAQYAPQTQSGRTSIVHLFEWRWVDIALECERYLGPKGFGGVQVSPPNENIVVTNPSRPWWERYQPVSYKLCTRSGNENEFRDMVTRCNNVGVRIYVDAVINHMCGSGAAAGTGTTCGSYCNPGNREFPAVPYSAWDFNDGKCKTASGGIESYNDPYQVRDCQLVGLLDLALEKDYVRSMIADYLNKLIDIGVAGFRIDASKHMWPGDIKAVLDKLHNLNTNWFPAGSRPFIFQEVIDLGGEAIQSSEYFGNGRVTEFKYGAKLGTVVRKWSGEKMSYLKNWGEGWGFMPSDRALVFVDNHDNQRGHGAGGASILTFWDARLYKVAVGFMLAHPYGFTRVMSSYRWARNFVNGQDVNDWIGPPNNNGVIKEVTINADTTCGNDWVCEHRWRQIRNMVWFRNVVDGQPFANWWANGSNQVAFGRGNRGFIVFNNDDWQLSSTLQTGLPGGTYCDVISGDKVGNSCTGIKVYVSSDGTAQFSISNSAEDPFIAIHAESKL
Description: Inhibition of porcine pancreatic alpha-amylase using starch as substrate after 30 mins by iodine reagent based assay.

Series [2] is described as follows: Inhibition of rat intestinal alpha-glucosidase using p-nitrophenyl alpha-D-glucopyranoside as substrate pretreated for 10 mins followed by substrate addition measured after 5 mins.
Series [3] has as its system L6. Put plainly: Cytotoxicity against rat L6 cells up to 50 uM after 24 hrs by MTT assay. In kind it is cell-based. The settings on record: l6, 24 h.
Series [4] addresses Albumin (Bos taurus, UniProt P02769). Description: Antiglycation activity in bovine serum albumin assessed as inhibition of advanced glycated end product formation after 24 hrs in presence of alpha-D-glucose by fluorescence assay.
Series [5] relates to L6. Description: Antidiabetic activity in rat L6 cells assessed as effect on 2-NBDG uptake at 10 uM pretreated for 24 hrs followed by 2-NBDG addition after 30 mins by FACS (reference value: 20%). In kind it is functional.
The test system of series [6] is L6. Put plainly: Antidiabetic activity in rat L6 cells assessed as effect on 2-NBDG uptake at 25 uM pretreated for 24 hrs followed by 2-NBDG addition after 30 mins by FACS (reference value: 20%). In kind it is functional.
In series [7] the test system is L6. Description: Antidiabetic activity in rat L6 cells assessed as effect on 2-NBDG uptake at 50 uM pretreated for 24 hrs followed by 2-NBDG addition after 30 mins by FACS (reference value: 20%). The series is classed as functional.
The subject of series [8] is L6. Description: Antidiabetic activity in rat L6 cells assessed as increase in 2-NBDG uptake pretreated for 24 hrs followed by 2-NBDG addition after 30 mins by FACS. The series is classed as functional, cell-based.
Series [9] relates to L6. Put plainly: Antidiabetic activity in rat L6 cells assessed as effect on 2-NBDG uptake at 100 uM pretreated for 24 hrs followed by 2-NBDG addition after 30 mins by FACS (reference value: 20%). In kind it is functional.

Sequence of Albumin (P02769 whole entry): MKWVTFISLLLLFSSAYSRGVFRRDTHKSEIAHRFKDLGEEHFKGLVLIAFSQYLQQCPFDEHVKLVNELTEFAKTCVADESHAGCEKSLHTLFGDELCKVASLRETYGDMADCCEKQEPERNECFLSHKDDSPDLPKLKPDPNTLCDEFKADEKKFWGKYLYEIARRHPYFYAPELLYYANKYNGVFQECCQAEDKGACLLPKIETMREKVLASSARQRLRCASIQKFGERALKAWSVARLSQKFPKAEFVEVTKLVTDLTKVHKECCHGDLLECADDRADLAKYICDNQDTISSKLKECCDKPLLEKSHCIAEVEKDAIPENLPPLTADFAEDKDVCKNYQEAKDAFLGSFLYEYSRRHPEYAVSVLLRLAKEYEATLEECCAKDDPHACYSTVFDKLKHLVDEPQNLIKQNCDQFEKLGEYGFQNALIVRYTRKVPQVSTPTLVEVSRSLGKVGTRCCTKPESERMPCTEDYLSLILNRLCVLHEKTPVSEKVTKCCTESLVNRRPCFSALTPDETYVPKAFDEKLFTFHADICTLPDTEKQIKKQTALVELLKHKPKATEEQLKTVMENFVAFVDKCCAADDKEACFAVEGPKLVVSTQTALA

With `O=C(CCCCCCCCc1ccc(O)c(O)c1)c1c(O)cccc1O` [MALABARICONE C], the IC50 stood at 10.6 µM in series [1], 43.6 µM in [2] and 15 µM in [4]. Moreover, the Activity result was “Non-Toxic” in series [3]; 17% in series [5]; 18.3% in [6]; 23.9% in series [7]; “Dose-dependent effect” in series [8].
For the compound `O=C(CCCCCCCCc1ccccc1)c1c(O)cccc1O` [MALABARICONE A], the IC50 stood at 19.1 µM in series [1], 91.4 µM in [2] and 19.3 µM in [4]. For the same compound, the Activity entry was “Non-Toxic” in series [3]; 32.9% in [5]; 33.4% in [6]; 36.7% in [7]; “Dose-dependent effect” in series [8].
As to `O=C(CCCCCCCCc1ccc(O)cc1)c1c(O)cccc1O` [MALABARICONE B], the IC50 stood at 12.9 µM in series [1], 63.7 µM in [2] and 40.3 µM in series [4]. Also, the Activity in [5] was 37.5%; in series [6], 45.8%; in [7] it was 52.7%; in series [8], “Dose-dependent effect”.
Regarding `CCCCCCCCCCCCCC(=O)c1c(O)cccc1O`, the IC50 in series [1] turned out to be 74.1 µM; in [2], 172 µM; in [4], 121 µM. Besides, the Activity entry in [3] is “Non-Toxic”; in [5], 32.9%; in series [6], 34.1%; in series [7], 36.3%; in [8], “Dose-dependent effect”.
Consider `C[C@H]1O[C@H](O[C@H]2[C@H](O)[C@@H](O)[C@@H](O[C@H]3[C@H](O)[C@@H](O)C(O)O[C@@H]3CO)O[C@@H]2CO)[C@H](O)[C@@H](O)[C@@H]1N[C@H]1C=C(CO)[C@@H](O)[C@H](O)[C@H]1O` (some centres not stated) [ACARBOSE], for which, in [2], the 50% inhibitory concentration (IC50) was 66.6 µM.
As for `CN(C)C(=N)NC(=N)N` [METFORMIN], the Activity in [9] was found to be 36.6%.
Take `COc1cccc(O)c1C(=O)CCCCCCCCc1ccc(O)cc1`: the figures for the IC50 in series [1], in [2] and in series [4] were 32.3 µM, 94.5 µM and 104 µM, respectively. In addition, the Activity entry in series [3] was “Non-Toxic”; in [5], 18.3%; in [6], 34.1%; in [7] it was 34.6%; in [8], “Dose-dependent effect”.
As for `CCCCCCCCCCCCCC(=O)c1c(O)cccc1OC`, the IC50 in series [1] turned out to be 39 µM; in [2], 257 µM; in [4], 192 µM. In addition, the Activity result in [3] is “Non-Toxic”; in series [5] it was 21.2%; in series [6] it was 28%; in series [7], 34.7%; in series [8] it was “Dose-dependent effect”.
Turning to `CCCCCCCCCCCCC(=O)c1cccc(C(=O)O)c1`, the IC50 in series [1] turned out to be 36.6 µM; in [2] it was 372 µM; in [4] it was 411 µM. In addition, the Activity entry was “Non-Toxic” in [3]; 17% in series [5]; 22.5% in [6]; 31.5% in [7]; “Dose-dependent effect” in series [8].
